# Test results from patent US7122545B2, “Imidazo-benzothiazoles” (Hoffmann-La Roche Inc., priority 2003, dated 2006).
# Counter-ions that a name gives are not always drawn.
# Tests used:
# [1] = target: T1, human adenosine A1 receptor (Homo sapiens, UniProt P30542); assay: Human adenosine A1 receptor [3H]-DPCPX binding assay (SPA); settings: recombinant receptor in CHO cell membranes; [3H]-DPCPX 0.6 nM; Ki by Cheng-Prussoff; read-out: hA1 (pKi) (converted)
# T1 construct: expressed in transfected cells; host or cells: CHO cells, semliki forest virus expression system; membrane preparation
# T1 sequence (P30542 1-326): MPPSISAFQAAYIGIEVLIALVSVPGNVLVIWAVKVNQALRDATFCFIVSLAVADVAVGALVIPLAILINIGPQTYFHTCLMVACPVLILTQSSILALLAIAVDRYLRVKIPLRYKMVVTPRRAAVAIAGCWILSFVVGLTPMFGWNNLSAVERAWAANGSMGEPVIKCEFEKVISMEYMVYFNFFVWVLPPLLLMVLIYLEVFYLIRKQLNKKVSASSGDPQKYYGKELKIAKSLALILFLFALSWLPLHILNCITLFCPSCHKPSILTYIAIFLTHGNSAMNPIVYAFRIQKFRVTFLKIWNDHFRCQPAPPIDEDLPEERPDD
# Description: Human Adenosine A1 receptor
# (§1) The human adenosine A1 receptor was recombinantly expressed in Chinese hamster ovary (CHO) cells using the semliki forest virus expression system. Cells were harvested, washed twice by centrifugation, homogenized and again washed by centrifugation. The final washed membrane pellet was suspended in a Tris (50 mM) buffer containing 120 mM NaCl, 5 mM KCl, 2 mM CaCl2 and 10 mM MgCl2 (pH 7.4) (buffer A). The [^3H]-DPCPX (([propyl-^3H]8-cyclopentyl-1,3-dipropyxanthine); 0.6 nM) binding assay was carried out in 96-well plates in the presence of 2.5 μg of membrane protein, 0.5 mg of Ysi-poly-1-lysine SPA beads and 0.1 U adenosine deaminase in a final volume of 200 μl of buffer A. Non-specific binding was defined using xanthine amine congener (XAC; 2 μM). Compounds were tested at 10 concentrations from 10 μM–0.3 nM. All assays were conducted in duplicate and repeated at least two times. Assay plates were incubated for 1 hour at room temperature before centrifugation and then bound ligand determined using a Packard Topcount scintillation counter. IC50 values were calculated using a non-linear curve fitting program and Ki values calculated using the Cheng-Prussoff equation.
# [2] = target: T2, human adenosine A2A receptor (Homo sapiens, UniProt P29274); assay: Human adenosine A2A receptor [3H]-SCH-58261 binding assay (SPA); settings: recombinant receptor in CHO cell membranes; [3H]-SCH-58261 1 nM; Ki by Cheng-Prussoff; read-out: hA2 (pKi) (converted)
# T2 construct: expressed in transfected cells; host or cells: CHO cells, semliki forest virus expression system; membrane preparation
# T2 sequence (P29274 whole entry): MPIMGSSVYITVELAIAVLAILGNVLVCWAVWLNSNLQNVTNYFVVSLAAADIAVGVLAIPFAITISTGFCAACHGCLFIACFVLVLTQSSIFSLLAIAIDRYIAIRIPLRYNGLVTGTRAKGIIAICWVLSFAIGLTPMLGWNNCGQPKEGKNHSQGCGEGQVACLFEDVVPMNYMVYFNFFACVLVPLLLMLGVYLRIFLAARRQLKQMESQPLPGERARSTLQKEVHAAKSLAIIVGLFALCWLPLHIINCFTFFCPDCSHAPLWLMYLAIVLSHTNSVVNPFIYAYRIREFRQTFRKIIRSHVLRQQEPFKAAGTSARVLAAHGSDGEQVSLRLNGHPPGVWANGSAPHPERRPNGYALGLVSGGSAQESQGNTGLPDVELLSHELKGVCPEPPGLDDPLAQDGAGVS
# Description: Human Adenosine A2A Receptor
# as §1, with “A2A” for “A1”, “[^3H]-SCH-58261 (Dionisotti et al., 1997, Br J Pharmacol 121, 353; 1” for “[^3H]-DPCPX (([propyl-^3H]8-cyclopentyl-1,3-dipropyxanthine); 0.6”, “μM-0.3” for “μM–0.3”, “duplic” for “duplicate”, “[…]” for “for 1”
smiles,measurement,setting,value
COc1ccc(N2CCOCC2)c2sc(-c3nc4c([nH]3)CCNCC4)nc12.Cl,melting point,,267 to 269 °C
COc1ccc(N2CCOCC2)c2sc(-c3nc4c([nH]3)CCNC4)nc12.Cl,melting point,,268 to 271 °C
"COc1ccc(N2CCOCC2)c2sc(-c3nc(-c4cccs4)c[nH]3)nc12 (as salt: ammonium) [Example 18, 4-Methoxy-7-morpholin-4-yl-2-(4-thiophen-2-yl-1H-imidazol-2-yl)-benzothiazole]",melting point,,165 °C
"COc1ccc(N2CCOCC2)c2sc(-c3nc(-c4ccsc4)c[nH]3)nc12 (as salt: ammonium) [Example 19, 4-Methoxy-7-morpholin-4-yl-2-(4-thiophen-3-yl-1H-imidazol-2-yl)-benzothiazole]",melting point,,170 °C
"COc1ccc(N2CCOCC2)c2sc(-c3nc(Cc4cccs4)c[nH]3)nc12 (as salt: ammonium) [Example 21, 4-Methoxy-7-morpholin-4-yl-2-(4-thiophen-2-ylmethyl-1H-imidazol-2-yl)-benzothiazole]",melting point,,165 °C
"COc1ccc(N2CCOCC2)c2sc(-c3nc4c([nH]3)CCCC4)nc12 (as salt: ammonium) [Example 22, 4-Methoxy-7-morpholin-4-yl-2-(4,5,6,7-tetrahydro-1H-benzoimidazol-2-yl)-benzothiazole]",melting point,,165 °C
"COc1ccc(N2CCOCC2)c2sc(-c3ncc[nH]3)nc12 [Example 1, 2-(1H-Imidazol-2-yl)-4-methoxy-7-morpholin-4-yl-benzothiazole]",Ki,[1],1000 nM
same,Ki,[2],12.6 nM
"COc1ccc(N2CCOCC2)c2sc(-c3nc4ccccc4[nH]3)nc12 [Example 2, 2-(1H-Benzoimidazol-2-yl)-4-methoxy-7-morpholin-4-yl-benzothiazole]",melting point,,284 to 286 °C
same,Ki,[1],158 nM
same,Ki,[2],0.501 nM
"COc1ccc(N2CCOCC2)c2sc(-c3nc4ccccc4n3C)nc12 [Example 3, 4-Methoxy-2-(1-methyl-1H-benzoimidazol-2-yl)-7-morpholin-4-yl-benzothiazole]",melting point,,283 to 285 °C
same,Ki,[2],100 nM
"COc1ccc(-c2ccccc2)c2sc(-c3ncc[nH]3)nc12 [Example 4, 2-(1H-Imidazol-2-yl)-4-methoxy-7-phenyl-benzothiazole]",melting point,,205 to 206 °C
same,Ki,[1],200 nM
same,Ki,[2],5.01 nM
"COc1ccc(N2CCOCC2)c2sc(-c3nc4ccc(Cl)nc4[nH]3)nc12 [Example 6, 5-Chloro-2-(4-methoxy-7-morpholin-4-yl-benzothiazol-2-yl)-3H-imidazo[4,5-b]pyridine]",Ki,[2],3.16 nM
"COCn1c(-c2nc3c(OC)ccc(N4CCOCC4)c3s2)nc2ccc(Cl)nc21 [Example 7, 5-Chloro-3-methoxymethyl-2-(4-methoxy-7-morpholin-4-yl-benzothiazol-2-yl)-3H-imidazo[4,5-b]pyridine]",melting point,,167 to 170 °C
"COc1ccc(N2CCOCC2)c2sc(-c3nc4ccc(N5CCOCC5)nc4[nH]3)nc12 [Example 9, 2-(4-Methoxy-7-morpholin-4-yl-benzothiazol-2-yl)-5-morpholin-4-yl-3H-imidazo[4,5-b]pyridine]",Ki,[2],2.51 nM
"COc1ccc(N2CCOCC2)c2sc(-c3nc4ccc(N(C)CC5CCOCC5)nc4[nH]3)nc12 [Example 14, [2-(4-Methoxy-7-morpholin-4-yl-benzothiazol-2-yl)-3H-imidazo[4,5-b]pyridin-5-yl]-methyl-(tetrahydro-pyran-4-ylmethyl)-amine]",Ki,[1],2510 nM
same,Ki,[2],3.16 nM
"COc1ccc(N2CCOCC2)c2sc(-c3nc(-c4ccccc4)c[nH]3)nc12 [Example 15, 4-Methoxy-7-morpholin-4-yl-2-(4-phenyl-1H-imidazol-2-yl)-benzothiazole]",melting point,,226 to 233 °C
"COc1ccc(N2CCOCC2)c2sc(-c3nc(-c4ccc5c(c4)OCCO5)c[nH]3)nc12 [Example 16, 2-[4-(2,3-Dihydro-benzo[1,4]dioxin-6-yl)-1H-imidazol-2-yl]-4-methoxy-7-morpholin-4-yl-benzothiazole]",melting point,,235 to 237 °C
"COc1ccc(N2CCOCC2)c2sc(-c3ncc(-c4csc5ccccc45)[nH]3)nc12 [Example 17, 2-(5-Benzo[b]thiophen-3-yl-1H-imidazol-2-yl)-4-methoxy-7-morpholin-4-yl-benzothiazole]",melting point,,161 to 162 °C
"COc1ccc(N2CCOCC2)c2sc(-c3ncc(-c4sc5ccccc5c4C)[nH]3)nc12 [Example 20, 4-Methoxy-2-[5-(3-methyl-benzo[b]thiophen-2-yl)-1H-imidazol-2-yl]-7-morpholin-4-yl-benzothiazole]",melting point,,213 to 215 °C
same,Ki,[2],50.1 nM
"COc1ccc(N2CCOCC2)c2sc(-c3nc4c([nH]3)CCCC4)nc12 [Example 22, 4-Methoxy-7-morpholin-4-yl-2-(4,5,6,7-tetrahydro-1H-benzoimidazol-2-yl)-benzothiazole]",Ki,[1],794 nM
same,Ki,[2],2.51 nM
"COc1ccc(N2CCOCC2)c2sc(-c3nc4c([nH]3)COCC4)nc12 [Example 23, 2-(4-Methoxy-7-morpholin-4-yl-benzothiazol-2-yl)-3,4,6,7-tetrahydro-pyrano[3,4-d]imidazole]",melting point,,203 to 204 °C
same,Ki,[1],398 nM
same,Ki,[2],1.26 nM
"COc1ccc(N2CCOCC2)c2sc(-c3nc4c([nH]3)CCN(C(=O)OC(C)(C)C)CC4)nc12 [Example 24, 2-(4-Methoxy-7-morpholin-4-yl-benzothiazol-2-yl)-4,5,7,8-tetrahydro-1H-imidazo[4,5-d]azepine-6-carboxylic acid tert-butyl ester]",melting point,,142 to 144 °C
"COc1ccc(N2CCOCC2)c2sc(-c3nc4c([nH]3)CCN(C(=O)c3ccc(F)cc3)CC4)nc12 [Example 26, (4-Fluoro-phenyl)-[2-(4-methoxy-7-morpholin-4-yl-benzothiazol-2-yl)-4,5,7,8-tetrahydro-1H-imidazo[4,5-d]azepin-6-yl]-methanone]",melting point,,205 to 207 °C
same,Ki,[1],631 nM
same,Ki,[2],1 nM
"COc1ccc(N2CCOCC2)c2sc(-c3nc4c([nH]3)CCN(C(C)=O)CC4)nc12 [Example 27, 1-[2-(4-Methoxy-7-morpholin-4-yl-benzothiazol-2-yl)-4,5,7,8-tetrahydro-1H-imidazo[4,5-d]azepin-6-yl]-ethanone]",melting point,,195 to 197 °C
"COc1ccc(N2CCOCC2)c2sc(-c3nc4c([nH]3)CCN(C(=O)c3ccccc3C)CC4)nc12 [Example 28, [2-(4-Methoxy-7-morpholin-4-yl-benzothiazol-2-yl)-4,5,7,8-tetrahydro-1H-imidazo[4,5-d]azepin-6-yl]-o-tolyl-methanone]",melting point,,194 to 196 °C
same,Ki,[1],1580 nM
same,Ki,[2],1.26 nM
"COc1ccc(N2CCOCC2)c2sc(-c3nc4c([nH]3)CCN(C(=O)C3CC3)CC4)nc12 [Example 30, Cyclopropyl-[2-(4-methoxy-7-morpholin-4-yl-benzothiazol-2-yl)-4,5,7,8-tetrahydro-1H-imidazo[4,5-d]azepin-6-yl]-methanone]",Ki,[1],1260 nM
same,Ki,[2],1.58 nM
"COc1ccc(N2CCOCC2)c2sc(-c3nc4c([nH]3)CCN(C(C)=O)C4)nc12 [Example 39, 1-[2-(4-Methoxy-7-morpholin-4-yl-benzothiazol-2-yl)-1,4,6,7-tetrahydro-imidazo[4,5-c]pyridin-5-yl]-ethanone]",melting point,,155 to 157 °C
"COc1ccc(C2CCOCC2)c2sc(-c3ncc[nH]3)nc12 [Example 45, 2-(1H-Imidazol-2-yl)-4-methoxy-7-(tetrahydro-pyran-4-yl)-benzothiazole]",melting point,,220 to 224 °C
"COc1ccc(N2CCOCC2)c2sc(-c3nc4c([nH]3)CCN(CC(N)=O)CC4)nc12 [Example 46, 2-[2-(4-Methoxy-7-morpholin-4-yl-benzothiazol-2-yl)-4,5,7,8-tetrahydro-1H-imidazo[4,5-d]azepin-6-yl]-acetamide]",melting point,,299 to 302 °C
